From publication PMC8753592, “Long-acting capsid inhibitor protects macaques from repeat SHIV challenges” (Nature, 2021)
Several values for one entry are separate records, joined by “and”; a condition that tells them apart may be missing. Equal values may be shown once. Read-outs that look alike come from different tables or passages of the source.

How the values were obtained:
[1] = test system: HIV-1 IIIb strain; assay: High-density antiviral dose–response curves (Hill slope) against HIV-1 IIIb in MT-4 cells; format: cell-based
[2] = test system: SHIV-SF162P3; assay: microbe, parasite or virus in culture; format: cell-based, SHIV (in rhesus macaque, Macaca mulatta, PBMCs); conditions: for % Virus Production, replicates n1–n3: experiments 1–7; for % Virus Production, MEAN: per experiment 1–7
Method: Freshly isolated PBMCs from three male rhesus macaque (M. mulatta) donors of Indian origin (HumanCells Biosciences) were cultured in RPMI-1640 cell culture medium (Life Technologies) supplemented with 10% heat-inactivated FBS (Hyclone), 2 mM glutamine and 100 U ml^−1 penicillin plus 100 μg ml^−1 streptomycin (complete RPMI). Before their use in the antiviral assays, rhesus PBMCs from three independent donors were pooled and activated at a density of 3 × 10^6 cells per ml for 72 h at 37 °C by the addition of 1 μg ml^–1 phytohemagglutinin (PHA, Sigma-Aldrich) and 50 U ml^−1 recombinant human interleukin-2 (IL-2) (Roche Diagnostics).
PHA/IL-2-stimulated rhesus PBMCs were infected in bulk culture with SHIV-SF162P3 at a concentration of 130 pg of p27 equivalent per million PBMCs. The cells were maintained in suspension by gently rocking the cultures mixed with virus inoculum for 3 h at 37 °C. The cells were then pelleted by centrifugation at 500g for 5 min, washed twice with complete RPMI to remove any unadsorbed virus and seeded into 96-well plates at a cell density of 2 × 10^5 cells per well in 100 μl. […] The cultures were incubated in a 5% CO2 incubator at 37 °C for 7 days. Cell-free supernatants derived from the PBMC cultures were harvested 7 days after infection, the amount of SHIV present was quantified using an SIV p27 antigen-capture ELISA assay (5436, Advanced Bioscience Laboratories) performed according to the manufacturer’s protocol, and the data were acquired using SoftMax Pro 6.3.1 software (Molecular Devices).

[3] = in vitro; conditions: rhesus
Method: After a 24-h equilibration period at 37 °C, samples were quenched with 4 volumes of 90% (vol/vol) acetonitrile and 10% (vol/vol) methanol containing internal standard. Then, they were quantified using the AB Sciex API 4000 LC–MS/MS system (GenTech Scientific) with electrospray ionization in positive mode and multiple-reaction monitoring and were analysed using Analyst 1.6.1 software. The fold change value in 100% rhesus plasma was then calculated using the plasma/CCM ratio after correcting for the sample dilution factor and the percentage of free fraction in the matrix.

[4] = test system: HIV-1 isolates; conditions: ref Yant et al, Nat.Med, 2019;[4]; read-out: EC50, human PBMCs, HIV-1 isolates; cited from earlier work
[5] = ref Yant et al, Nat.Med, 2019;[4], cited from earlier work
[6] = Plasma GS-CA1 pharmacokinetics in the repeat SHIV challenge study; format: in vivo, rhesus macaques of Indian origin
Method: For the challenge study, 24 outbred rhesus macaques of Indian origin were assigned to the three study groups with even sex and weight distributions. All animals were housed at Alpha Genesis (Yemassee, SC), and all procedures were conducted in compliance with all relevant local, state and federal regulations and were approved by the Alpha Genesis IACUC. […] The injection sites were monitored daily by veterinary staff for 3 days. Beginning in week 1, animals in all three groups were challenged by the intrarectal route with 1 ml of RPMI containing the specified dilution of a 3.62 × 10^3 TCID50 SHIV-SF162P3 stock. At each respective time point, the challenges were performed on the same day, using the same virus stock and inoculation method across the three groups. Whole blood was collected and processed into plasma and PBMCs as necessary to assess routine haematology, clinical chemistry, viral load and serology as well as for bioanalysis of drug levels. The animals were considered to be protected if they remained SHIV negative by plasma PCR assay and seronegative by enzyme immunoassay throughout the 15-week challenge phase and the 9-week follow-up.
Rhesus plasma samples were stored frozen at −80 °C.

[7] = both sexes, Indian origin, rhesus monkey, in vivo, sc, 150 mg/kg, 150 mg/kg single s.c., n=8, mean ± SD
[8] = both sexes, Indian origin, rhesus monkey, in vivo, sc, 300 mg/kg, 300 mg/kg single s.c., n=8, mean ± SD
[9] = both sexes, Indian origin, rhesus monkey, in vivo, sc, 150 mg/kg single s.c., n=8, mean ± SD
[10] = both sexes, Indian origin, rhesus monkey, in vivo, sc, 300 mg/kg single s.c., n=8, mean ± SD

CC(C)(C#Cc1ccc(-c2ccc(Cl)c3c(NS(=O)(=O)C4CC4)nn(CC(F)F)c23)c([C@H](Cc2cc(F)cc(F)c2)NC(=O)Cn2nc(C(F)F)c3c2C(F)(F)[C@@H]2C[C@H]32)n1)S(C)(=O)=O [GS-CA1]
Hill slope (n) [1]: 3.03 ± 0.69 and 3.0 ± 0.7
% Virus Production, replicates n1–n3 ([2]; 0.011 nM): 122% and 104% and 99% and 93% and 127% and 160% and 82% and 121% and 88% and 87% and 68%
% Virus Production, MEAN ([2]; 0.011 nM): 108% and 126% and 97% and 83% and 121% and 68%
% Virus Production, replicates n1–n3 ([2]; 0.034 nM): 106% and 78% and 72% and 136% and 114% and 75% and 116% and 105% and 181% and 64% and 89% and 82% and 53% and 93%
% Virus Production, replicates n1–n3 ([2]; 0.103 nM): 127% and 124% and 79% and 73% and 103% and 118% and 130% and 152% and 105% and 82% and 99% and 121% and 76% and 71%
% Virus Production, MEAN ([2]; 0.103 nM): 110% and 85% and 133% and 95% and 89% and 99% and 67%
% Virus Production, replicates n1–n3 ([2]; 0.309 nM): 75% and 74% and 102% and 149% and 120% and 72% and 78% and 94% and 103% and 109% and 66%
% Virus Production, replicates n1–n3 ([2]; 0.926 nM): 65% and 37% and 36% and 39% and 31% and 20% and 16% and 18% and 23% and 70% and 14% and 22%
% Virus Production, replicates n1–n3 ([2]; 2.778 nM): 0.408% and 2% and 2.34% and 1.77% and 1.55% and 0.489% and 2.2% and 1.37% and 0.76% and 0.799%
% Virus Production, MEAN ([2]; 2.778 nM): 1.61% and 1.79% and 1.35% and 1.16% and 2.6% and 1.28% and 0.0528%
% Virus Production, replicates n1–n3 ([2]; 8.333 nM): 1.76% and 1% and 0.517% and 0.425% and 0.705% and 0.145% and 0.0164% and 0.262% and 1.4% and 0.22% and 0.682% and 0.142%
% Virus Production, MEAN ([2]; 8.333 nM): 1.08% and 0.425% and 0.559% and 0.348% and 1.87% and 0.078% and 0.398%
% Virus Production, replicates n1–n3 ([2]; 25.000 nM): -0.0465% and -0.0193% and 0.798% and -0.276% and 0.164% and 0.276% and 1% and 0.434% and -0.106% and 0.12% and 0.292% and 0.064% and 0.0863%
% Virus Production, MEAN ([2]; 25.000 nM): 0.244% and 0.0545% and 0.436% and 0.159% and -0.387% and 0.675% and 0.293%
Rhesus PBMC paEC95 ([2]; EC95 × rhesus plasma shift): 30.2 nM and 30.2 ± 2.5 nM and 30 nM
EC50 ([2]; Simian immunodeficiency virus, PBMC, in Macaca mulatta, 168 h, read-out: EC50, rhesus PBMCs, SHIV-SF162P3, mean of 7 assays, SIV p27 ELISA day 7 post-infection): 720 pM
EC50 ([2]; Simian immunodeficiency virus, PBMC, in Macaca mulatta, 168 h, read-out: SHIV162P3-rhPBMC-EC50, individual experiments, single experiments n1–n7, SIV p27 ELISA day 7): 660 pM
Rhesus PBMC EC95 ([2]; calculated from SHIV EC50 and Hill slope: EC50 × (95/5)^1/n): 1910 pM and 1910 ± 160 pM and 1900 pM
EC50 ([2]; read-out: SHIV162P3-rhPBMC-EC50, individual experiments, single experiments n1–n7, SIV p27 ELISA day 7): 0.71 nM and 0.777 nM and 0.868 nM and 0.535 nM and 0.74 nM (2×) and 0.661 nM and 0.78 nM and 0.714 nM and 0.87 nM and 0.54 nM
recovery at 24 h, 2 μM [3]: 60%
EC50 [4]: 130 pM
Kinetic solubility at pH 2.0 ([5]; pH 2.0): <1, <1 μM
Kinetic solubility at pH 7.4 ([5]; pH 7.4): <1, <1 μM
time above the rhesus paEC95 ([6]; 150 mg/kg single s.c.): 8–15 weeks
time six times above the rhesus paEC95 ([6]; 150 mg/kg single s.c.): 3–7 weeks
Cmax ([6]; 150 mg/kg single s.c., n=8, mean ± SD): 3020 ± 1070 nM
Plasma GS-CA1 ([6]; 150 mg/kg single s.c., Week 1, individual animals): 899.55 nM
Plasma GS-CA1 ([6]; 150 mg/kg single s.c., Week 2, individual animals): 1188.65 nM
Plasma GS-CA1 ([6]; 150 mg/kg single s.c., Week 3, individual animals): 497.91 nM
Plasma GS-CA1 ([6]; 150 mg/kg single s.c., Week 4, individual animals): 153.01 nM
Plasma GS-CA1 ([6]; 150 mg/kg single s.c., Week 5, individual animals): 181.45 nM
Plasma GS-CA1 ([6]; 150 mg/kg single s.c., Week 6, individual animals): 238.73 nM
Plasma GS-CA1 ([6]; 150 mg/kg single s.c., Week 7, individual animals): 104 nM
Plasma GS-CA1 ([6]; 150 mg/kg single s.c., Week 8, individual animals): 126.07 nM
Plasma GS-CA1 ([6]; 150 mg/kg single s.c., Week 9, individual animals): 74.21 nM and 60.58 nM
Plasma GS-CA1 ([6]; 150 mg/kg single s.c., Week 10, individual animals): 50.06 nM and 64.16 nM
Plasma GS-CA1 ([6]; 150 mg/kg single s.c., Week 11, individual animals): 28.74 nM and 29.18 nM
Plasma GS-CA1 ([6]; 150 mg/kg single s.c., Week 12, individual animals): 46.73 nM and 64.14 nM
Plasma GS-CA1 ([6]; 150 mg/kg single s.c., Week 13, individual animals): 44.36 nM
Plasma GS-CA1 ([6]; 150 mg/kg single s.c., Week 14, individual animals): 34.07 nM
Plasma GS-CA1 ([6]; 150 mg/kg single s.c., Week 15, individual animals): 17.38 nM
Plasma GS-CA1 ([6]; 150 mg/kg single s.c., Week 16, individual animals): 12.74 nM
Plasma GS-CA1 ([6]; 150 mg/kg single s.c., Week 17, individual animals): 16.54 nM
Plasma GS-CA1 ([6]; 150 mg/kg single s.c., Week 18, individual animals): 11.37 nM
Plasma GS-CA1 ([6]; 150 mg/kg single s.c., Week 19, individual animals): 19.32 nM
Plasma GS-CA1 ([6]; 150 mg/kg single s.c., Week 20, individual animals): 17.47 nM
Plasma GS-CA1 ([6]; 150 mg/kg single s.c., Week 21, individual animals): 4.49 nM
Plasma GS-CA1 ([6]; 150 mg/kg single s.c., Week 22, individual animals): 3.38 nM
Plasma GS-CA1 ([6]; 150 mg/kg single s.c., Week 23, individual animals): 2.14 nM
Plasma GS-CA1 ([6]; 150 mg/kg single s.c., Week 24, individual animals): 4.67 nM
time above the rhesus paEC95 ([6]; 300 mg/kg single s.c.): 14–16 weeks
time six times above the rhesus paEC95 ([6]; 300 mg/kg single s.c.): 5–8 weeks
Cmax ([6]; 300 mg/kg single s.c., n=8, mean ± SD): 5530 ± 1470 nM
concentration at 12 week ([6]; both sexes, Indian origin (outbred), rhesus monkey, in vivo, 300 mg/kg, Plasma GS-CA1, GS-CA1 300mg/kg, Week 12, individual animals): 83.4 nM
concentration at 15 week ([6]; both sexes, Indian origin (outbred), rhesus monkey, in vivo, 300 mg/kg, Plasma GS-CA1, GS-CA1 300mg/kg, Week 15, individual animals): 45.4 nM
concentration at 12 weeks ([6]; both sexes, Indian origin, outbred, rhesus monkey, in vivo, 300 mg/kg, Plasma GS-CA1, 300 mg/kg single s.c., Week 12, individual animals): 83.4 nM
concentration at 15 weeks ([6]; both sexes, Indian origin, outbred, rhesus monkey, in vivo, 300 mg/kg, Plasma GS-CA1, 300 mg/kg single s.c., Week 15, individual animals): 45.4 nM
Cmax [6, 7]: 3000 nM
Tmax [6, 7]: ~1 days
Cmax [6, 8]: 5500 nM
Tmax [6, 8]: ~1.75 days
AUC(0-inf) [6, 9]: 960 ± 435 µM·h
AUC(0-t) [6, 9]: 959 ± 435 µM·h
half-life ([6]; both sexes, Indian origin, rhesus monkey, in vivo, sc, 150 mg/kg single s.c., n=8, mean ± SD, read-out: t1/2 (converted)): 13.2 ± 5.5 days
AUC(0-inf) [6, 10]: 2040 ± 722 µM·h
AUC(0-t) [6, 10]: 2040 ± 722 µM·h
half-life ([6]; both sexes, Indian origin, rhesus monkey, in vivo, sc, 300 mg/kg single s.c., n=8, mean ± SD, read-out: t1/2 (converted)): 12 ± 1.88 days
half-life ([6]; both sexes, Indian origin, rhesus monkey, in vivo, range over the 150 and 300 mg/kg groups, read-out: mean half-life): 12 to 13.2 days
